This note sets out measurements from patent US8680094B2, “1, 4-benzoxazine compounds and derivatives thereof as therapeutic drugs for the treatment of neurodegenerative conditions” (Board of Regents, The University of Texas System, priority 2008, dated 2014).

The subject of one assay is phospho-ERK. Nature of the assay: Western blot of signaling proteins in LK-treated cerebellar granule neurons: phospho-ERK. Format: cell-based, rat. Conditions: LK medium with compound, 3 h. Here is the method:
Cultures of cerebellar granule neurons were switched to HK medium, LK medium, or LK medium containing of HSB-13, HSB-22, or ASK-2a for 3 h. Total cell lysates were prepared and analyzed by Western blotting using antibodies against phospho-Akt (Ser473), phospho-MEK, phospho-ERK, and phospho-GSK3β.
The culture medium was removed and the cells were washed twice with ice-cold phosphate-buffered saline (PBS) and lysed in lysis buffer [1% Triton, 20 mM Tris-HCl (pH 7.5), 150 mM NaCl, 1 mM Na2EDTA, 1 mM EGTA, 2.5 mM sodium pyrophosphate, 1 mM beta-glycerophosphate, 1 mM Na3VO4, 1 μg/mL leupeptin and 1 protease inhibitor mixture]. Protein concentrations were measured and normalized using Bradford protein assay reagent (Bio-Rad, Hercules, Calif., USA). Following normalization, 40 μg of protein was subjected to Western blotting. Immunoreactivity was examined by enhanced chemiluminescence (Amersham Bioscience, Piscataway, N.J., USA).
Activation of MEK, ERK and Akt requires their phosphorylation, which can be detected using phospho-specific antibodies. As previously reported by the inventors and others (Chin et al., 2004; Johnson et al., 2005; Majdzadeh et al., 2008), MEK and ERK phosphorylation decreases following LK treatment of cerebellar granule neurons. This decrease is not prevented by HSB-13, HSB-22, or ASK-2a (FIG. 4). […] This is also not affected by treatment with ASK-2a or HSB-22 (FIG. 4).
Background: In western blotting, separated proteins are transferred to a membrane and probed.

Another assay has as its system HT-22 cells. Nature of the assay: HCA-induced toxicity in HT-22 neuroblastoma cells. The format is cell-based, mouse. Here is the method: FIGS. 6A and 6B show the effects of HSB-13 on HT-22 cells and the quantification of cell death. […] HT-22 cells were treated with no additives (Un), 1.5 mM HCA, or 1.5 mM HCA plus 25 μM HSB-13, 25 μM ASK-2a, and 25 μM HSB-22. In FIG. 6A, the appearance of the cultures at 24 h after treatment was visualized by phase-contrast microscopy (Phase). […] Viability was expressed as % of untreated cultures (control);
HT-22 cells were treated with no additives (Control), 2 mM HCA, or 2 mM HCA+25 μM HSB-13. The appearance of the cultures at 24 h after treatment is shown.
The mouse HT-22 neuroblastoma cell line was purchased from ATCC (Manassas, Va., USA) and cultured in Dulbecco's modified Eagle's medium (DMEM) with 4.5 g/L glucose (without sodium pyruvate) supplemented with 10% FBS, 100 units/ml penicillin and 100 μg/ml streptomycin. Cultures were plated at ˜30% confluence for HCA treatment. HCA was made as 150 mM stock solution adjusted to pH 7.5 and used at a final concentration of 1.5 mM.
Treatment of the mouse neuroblastoma HT-22 cell line with homocysteic acid (HCA) induces apoptosis through glutathione depletion and oxidative stress (Murphy et al. 1990; Ratan et al. 1994a, 1994b). The inventors studied whether HSB-13, HSB-22, and ASK-2a were protective in this paradigm of oxidative stress-induced neuronal death. HSB-13 prevents HCA-induced cell death. […] Thus, HSB-13, but not ASK-2a and HSB-22, is protective against oxidative stress-induced neuronal death.
Analysis in cultured cerebellar granule neurons identified HSB-13 as one with strong neuroprotective efficacy. We therefore selected HSB-13 to examine whether its protective effects extended to other neuronal types and apoptotic stimuli. Treatment of the hippocampally-derived neuroblastoma cell line, HT-22, with homocysteic acid (HCA) causes oxidative stress due to glutathione depletion leading to apoptosis (Murphy et al., 1990; Ratan et al., 1994a and 1994b).

The next assay addresses MEKK1 (Homo sapiens, UniProt Q13233). The assay is described as follows: In vitro kinase activity. Format: biochemical. The note with it: percentage of control assays without compound, mean of duplicate. Here is the method: (§1) To better understand the mechanism of action of the compounds of the present invention, but in no way a limitation; the effects of HSB-13 and ASK-2a on 20 different kinases were examined in vitro. At 500 nM concentration, ASK-2a inhibited the kinase activities of GSK3α, GSK3β, p38α, p38β, JNK3, MLK3, and B-Raf substantially. […] As described above, ASK-2a protects cerebellar granule neurons against LK-induced death but is ineffective against HCA-induced toxicity of HT-22 cells. In contrast, HSB-13 is protective in both paradigms. […] Previous studies have established that CDK inhibitors can protect neurons against a number of different apoptotic stimuli.
(§2) The activity of each kinase was measured in vitro in the presence either 100 nM or 500 nM ASK-2a. Kinase activity is expressed as a percentage of that in control assays (without ASK-2a). The values are mean of assays performed in duplicate. Substantial inhibition of kinase activity (>20%) is in bold type.
(§3) Table 3: Effect of HSB-13 at 500 nM on 20 different kinases measured in vitro. Kinase activity is expressed as a percentage of that in control assays (without HSB-13). The values are mean of assays performed in duplicate. Substantial inhibition of kinase activity (>20%) is in bold type.

A further assay deals with CDK1/Cylcin A1 (Homo sapiens, UniProt P06493). Nature of the assay: In vitro kinase activity. Format: biochemical. Conditions: percentage of control assays without compound, mean of duplicate. Here is the method:
as §1, §2, §3

For another assay, the target named is JNK2 (Homo sapiens, UniProt P45984). The assay is described as follows: In vitro kinase activity. Conditions: percentage of control assays without compound, mean of duplicate. Format: biochemical. Here is the method:
as §1, §2, §3

Where [1] appears, read: any of the three doses examined (data not shown).

Sequence of JNK2 (P45984 whole entry, species assumed): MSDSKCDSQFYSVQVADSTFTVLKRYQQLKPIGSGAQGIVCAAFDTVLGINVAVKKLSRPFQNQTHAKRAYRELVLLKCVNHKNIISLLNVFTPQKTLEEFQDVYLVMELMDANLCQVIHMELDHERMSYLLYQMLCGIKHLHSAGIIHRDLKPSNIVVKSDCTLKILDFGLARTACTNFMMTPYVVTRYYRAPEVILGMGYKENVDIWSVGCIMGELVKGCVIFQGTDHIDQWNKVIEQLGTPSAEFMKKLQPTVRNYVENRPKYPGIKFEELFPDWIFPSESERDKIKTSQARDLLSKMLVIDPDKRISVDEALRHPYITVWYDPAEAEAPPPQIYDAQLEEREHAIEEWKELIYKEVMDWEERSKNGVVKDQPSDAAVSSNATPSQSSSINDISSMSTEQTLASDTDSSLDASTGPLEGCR
Sequence of CDK1/Cylcin A1 (P06493 whole entry, species assumed): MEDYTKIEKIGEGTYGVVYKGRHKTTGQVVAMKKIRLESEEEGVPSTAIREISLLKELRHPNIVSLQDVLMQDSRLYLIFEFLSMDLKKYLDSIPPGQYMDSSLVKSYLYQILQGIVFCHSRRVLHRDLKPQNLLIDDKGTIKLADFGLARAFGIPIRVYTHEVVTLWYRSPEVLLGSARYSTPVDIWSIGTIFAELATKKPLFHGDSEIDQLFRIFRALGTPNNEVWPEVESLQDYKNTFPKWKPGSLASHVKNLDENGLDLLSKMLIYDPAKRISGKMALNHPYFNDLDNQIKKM
Sequence of CDK1/Cylcin A1 (P78396 whole entry partner, species assumed): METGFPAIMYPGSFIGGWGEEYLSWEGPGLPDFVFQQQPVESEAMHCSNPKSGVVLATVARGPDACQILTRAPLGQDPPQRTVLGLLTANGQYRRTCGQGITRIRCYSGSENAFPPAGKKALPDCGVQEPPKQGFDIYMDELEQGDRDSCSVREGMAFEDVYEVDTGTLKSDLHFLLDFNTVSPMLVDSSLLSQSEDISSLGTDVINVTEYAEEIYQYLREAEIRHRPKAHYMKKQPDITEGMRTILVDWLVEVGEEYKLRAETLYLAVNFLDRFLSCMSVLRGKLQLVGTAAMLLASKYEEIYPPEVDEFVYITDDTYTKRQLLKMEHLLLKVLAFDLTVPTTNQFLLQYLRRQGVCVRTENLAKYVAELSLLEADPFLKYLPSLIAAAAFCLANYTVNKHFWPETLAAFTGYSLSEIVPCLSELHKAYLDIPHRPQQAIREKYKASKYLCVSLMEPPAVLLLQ
Sequence of MEKK1 (Q13233 whole entry, species assumed): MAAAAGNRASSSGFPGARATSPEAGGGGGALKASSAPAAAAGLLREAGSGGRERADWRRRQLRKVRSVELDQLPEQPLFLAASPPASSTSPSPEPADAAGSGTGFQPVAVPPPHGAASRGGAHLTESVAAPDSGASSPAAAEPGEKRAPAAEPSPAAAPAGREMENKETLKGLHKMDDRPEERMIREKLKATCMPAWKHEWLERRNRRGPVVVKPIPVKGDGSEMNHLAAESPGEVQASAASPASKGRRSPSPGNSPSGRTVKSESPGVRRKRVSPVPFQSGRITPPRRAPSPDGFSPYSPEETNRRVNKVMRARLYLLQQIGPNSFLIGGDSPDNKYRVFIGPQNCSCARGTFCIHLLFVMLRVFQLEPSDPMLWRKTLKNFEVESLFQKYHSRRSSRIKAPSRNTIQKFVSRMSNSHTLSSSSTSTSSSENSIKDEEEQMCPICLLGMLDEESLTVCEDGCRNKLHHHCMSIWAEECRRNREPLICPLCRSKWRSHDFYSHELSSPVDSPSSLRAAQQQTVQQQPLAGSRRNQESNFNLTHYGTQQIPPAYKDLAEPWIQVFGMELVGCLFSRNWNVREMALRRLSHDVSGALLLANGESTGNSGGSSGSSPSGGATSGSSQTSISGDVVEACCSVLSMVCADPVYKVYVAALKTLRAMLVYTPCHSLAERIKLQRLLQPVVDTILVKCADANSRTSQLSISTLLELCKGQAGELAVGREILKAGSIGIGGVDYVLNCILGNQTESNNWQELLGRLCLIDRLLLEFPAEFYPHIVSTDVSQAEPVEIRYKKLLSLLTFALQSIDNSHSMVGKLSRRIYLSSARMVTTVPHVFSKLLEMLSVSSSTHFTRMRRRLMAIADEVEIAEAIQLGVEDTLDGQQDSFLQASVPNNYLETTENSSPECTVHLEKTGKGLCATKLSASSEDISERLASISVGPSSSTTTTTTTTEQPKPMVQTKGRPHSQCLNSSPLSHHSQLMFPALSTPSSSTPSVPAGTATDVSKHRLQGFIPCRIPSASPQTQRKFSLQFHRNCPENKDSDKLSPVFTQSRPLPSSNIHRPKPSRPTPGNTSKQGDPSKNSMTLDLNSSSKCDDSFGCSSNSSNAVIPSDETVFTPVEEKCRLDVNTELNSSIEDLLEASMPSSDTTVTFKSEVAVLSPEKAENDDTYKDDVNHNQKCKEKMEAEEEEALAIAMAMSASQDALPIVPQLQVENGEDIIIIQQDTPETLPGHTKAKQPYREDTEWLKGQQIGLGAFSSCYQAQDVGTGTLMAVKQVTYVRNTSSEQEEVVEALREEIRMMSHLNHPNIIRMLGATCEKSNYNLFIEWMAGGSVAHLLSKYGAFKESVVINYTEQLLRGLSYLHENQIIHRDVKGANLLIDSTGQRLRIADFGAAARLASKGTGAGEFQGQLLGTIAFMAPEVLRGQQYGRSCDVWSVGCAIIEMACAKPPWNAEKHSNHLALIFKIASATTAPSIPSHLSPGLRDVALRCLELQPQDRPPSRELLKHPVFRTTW

Consider `O=C1Nc2ccccc2OC1=Cc1cc(Br)c(O)c(Br)c1` [ASK-2a], for which the “LK-induced decrease of ERK phosphorylation” value (from here on “LK-induced decrease”) with phospho-ERK was “not prevented”. Besides, the “protection against HCA-induced cell death” value (from here on “protection”) in the assay on HT-22 cells (setting [1]) was “failed to protect”. The “% ACTIVITY” value was found to be 100% at MEKK1 (100 nM); 98% on MEKK1 (500 nM); 101% on CDK1/Cylcin A1 (100 nM); 88% on CDK1/Cylcin A1 (500 nM); 95% at JNK2 (100 nM); 93% on JNK2 (500 nM).

Consider `O=C1Nc2cc(Cl)ccc2O/C1=C\c1cc(Br)c(O)c(Br)c1` [HSB-22], for which the “LK-induced decrease” value with phospho-ERK was “not prevented”. The “protection” value in the assay with HT-22 cells (setting [1]) is given as “failed to protect”.

For the molecule `Nc1ccc2c(c1)NC(=O)/C(=C/c1cc(Br)c(O)c(Br)c1)O2` [HSB-13, (Z)-6-amino-2-(3,′5′-dibromo-4′-hydrozybenzylidene)-2H-benzo[b][1,4]oxazin-3(4H)-one], the “LK-induced decrease” value in the assay on phospho-ERK is “not prevented”. The “protection” value with HT-22 cells (1.5 mM HCA, 5 μM compound, 24 h) is listed as “robust protection”; with HT-22 cells (1.5 mM HCA, 25 μM compound, 24 h), “highest protection”; in the assay on HT-22 cells (2 mM HCA, 5 uM compound), “not protective”. Moreover, the HCA-induced cell death result in the assay with HT-22 cells (2 mM HCA, 25 uM compound, 24 h (FIG. 9)) is recorded as “prevented”. For the same molecule, the “% ACTIVITY” value on MEKK1 (100 nM) came out at 99%; at MEKK1 (500 nM), 98%; on CDK1/Cylcin A1 (100 nM), 95%; on JNK2 (100 nM) it was 98%.
